Experimental findings from patent publication US20130210804A1, “TRICYCLIC MGLUR5 RECEPTOR MODULATORS” (priority 2010, published 2013) are described below.

Where two headings read alike, the source gives them in different places.

In this test the target is T1, human mGluR5A (Homo sapiens, UniProt P41594).
T1 construct: expressed in transfected cells; host or cells: CHO (Chinese Hamster Ovary) cells, kept under Puromycin and Zeocin selection
Nature of the test: Fluorescent Ca2+ mobilization (FLIPR) assay, potentiation of a sub-threshold (EC20, 300 nM) glutamate response. The test is classed as cell-based. To be noted: CHO cells expressing human mGluR5A, potentiation in the presence of 300 nM glutamate. The text has this:
The utility of the compounds in accordance with the present invention as positive allosteric modulators of metabotropic glutamate receptor activity, in particular mGluR5 activity, may be readily determined without undue experimentation by methodology well known in the art, including O'Brien et al., Molecular Pharmacology 2003, 64(3) 731-740. In particular, the compounds of the following examples had activity in reference assays by enhancing mGluR5 activity. […] Changes in intracellular Ca^2+ were measured with Fluo-4AM ester (Invitrogen/Molecular Probes), which was detected on a Fluorometric Imaging Plate Reader (FLIPR, Molecular Devices, Sunnyvale, Calif.). In a typical experiment the mGluR5 positive allosteric modulatory activity of the compounds of the present invention was determined in accordance with the following experimental method.
Chinese Hamster Ovary (CHO) cells expressing human mGluR5A were maintained in growth medium containing DMEM, 10% dialyzed Fetal Bovine Serum, 50 units/mL Penicillin, 50 ug/mL Streptomycin, 2 mM L-glutamine, 1×MEM non-essential amino acids, 1 mM sodium pyruvate, 25 mM HEPES, 55 uM 2-mercaptoethanol, 5 ug/mL Puromycin, and 250 ug/mL Zeocin at 37° C. and 5% CO2. The day before the experiment, the cells were washed and seeded in “plating media” containing only DMEM, 10% dialyzed Fetal Bovine Serum, 50 units/mL Penicillin, and 50 ug/mL Streptomycin at a density of 50,000 cells/well (100 uL/well) in black 384-well clear-bottom PDL-coated plates. The cells were grown overnight at 37° C. and 6% CO2. This overnight glutamine/glutamate starvation allowed for consistent expression of the mGluR5A receptor, and the ability to add a known amount of agonist (glutamate in most cases) on the day of the experiment.
The day of the experiment, the cells were washed with 37° C. Assay Buffer (Hanks Balanced Salt Solution with CaCl2 and MgCl2, 20 mM HEPES, 2.5 mM Probenecid, 0.1% BSA) with an automated plate washer (3×100 uL, aspiration 3 mm from bottom leaving ˜30 uL of buffer in each well). After washing, 30 uL of dye loading buffer (4 uM Fluo-4AM, 0.04% Pluronic acid, and 1% dialyzed FBS in assay buffer) were added to each well of the plates for 2 uM Fluo-4AM final concentration. The plates were incubated at 37° C. and 6% CO2 for 1 hour to allow for dye loading. After dye loading, the cells were washed again as above, and placed on the FLIPR. Assays were conducted with two possible scenarios: 1) To determine the potencies of the compounds, as either agonists of mGluR5 or potentiators of mGluR5 in the presence of a sub-threshold amount of glutamate, 10-point titrations of the compounds (1:3 dilution between each point, 30-0.0015 uM final concentrations) were added to the cells, followed by the addition of the EC20 of glutamate (300 nM) to the cells. 2) To determine the cooperativity of the compounds with the natural agonist (glutamate), single concentrations of the compounds were added to the cells, followed by the addition of a 10-point titration of glutamate (1:3 dilution between each point, 1000-0.05 uM final concentrations). […] For both scenarios above, operation of the FLIPR was the same. Baseline fluorescence was monitored for 10 seconds, followed by the addition of compounds diluted in Assay Buffer (1% DMSO concentration after this addition, 0.66% final DMSO concentration after agonist addition). After monitoring fluorescence for 5 minutes, during which time any intrinsic agonist activity of the compounds would have been detected, the agonist (glutamate) also diluted in assay buffer was then added to the cells. The response was then monitored for an additional 3 minutes. In scenario #1, the peak during the final 3 minutes was used for potentiator data, and the peak during the 5 minutes post compound addition was used for compound agonist data. […]

The mark [1] stands for this setting: about/generally, read-out: EC50 for potentiating/enhancing the mGluR5 receptor in the FLIPR assay.
The mark [2] stands for this setting: inflection points, read-out: Representative FLIPR EC50 Values.

T1 sequence (P41594 21-1180 isoform P41594-2 limits assumed): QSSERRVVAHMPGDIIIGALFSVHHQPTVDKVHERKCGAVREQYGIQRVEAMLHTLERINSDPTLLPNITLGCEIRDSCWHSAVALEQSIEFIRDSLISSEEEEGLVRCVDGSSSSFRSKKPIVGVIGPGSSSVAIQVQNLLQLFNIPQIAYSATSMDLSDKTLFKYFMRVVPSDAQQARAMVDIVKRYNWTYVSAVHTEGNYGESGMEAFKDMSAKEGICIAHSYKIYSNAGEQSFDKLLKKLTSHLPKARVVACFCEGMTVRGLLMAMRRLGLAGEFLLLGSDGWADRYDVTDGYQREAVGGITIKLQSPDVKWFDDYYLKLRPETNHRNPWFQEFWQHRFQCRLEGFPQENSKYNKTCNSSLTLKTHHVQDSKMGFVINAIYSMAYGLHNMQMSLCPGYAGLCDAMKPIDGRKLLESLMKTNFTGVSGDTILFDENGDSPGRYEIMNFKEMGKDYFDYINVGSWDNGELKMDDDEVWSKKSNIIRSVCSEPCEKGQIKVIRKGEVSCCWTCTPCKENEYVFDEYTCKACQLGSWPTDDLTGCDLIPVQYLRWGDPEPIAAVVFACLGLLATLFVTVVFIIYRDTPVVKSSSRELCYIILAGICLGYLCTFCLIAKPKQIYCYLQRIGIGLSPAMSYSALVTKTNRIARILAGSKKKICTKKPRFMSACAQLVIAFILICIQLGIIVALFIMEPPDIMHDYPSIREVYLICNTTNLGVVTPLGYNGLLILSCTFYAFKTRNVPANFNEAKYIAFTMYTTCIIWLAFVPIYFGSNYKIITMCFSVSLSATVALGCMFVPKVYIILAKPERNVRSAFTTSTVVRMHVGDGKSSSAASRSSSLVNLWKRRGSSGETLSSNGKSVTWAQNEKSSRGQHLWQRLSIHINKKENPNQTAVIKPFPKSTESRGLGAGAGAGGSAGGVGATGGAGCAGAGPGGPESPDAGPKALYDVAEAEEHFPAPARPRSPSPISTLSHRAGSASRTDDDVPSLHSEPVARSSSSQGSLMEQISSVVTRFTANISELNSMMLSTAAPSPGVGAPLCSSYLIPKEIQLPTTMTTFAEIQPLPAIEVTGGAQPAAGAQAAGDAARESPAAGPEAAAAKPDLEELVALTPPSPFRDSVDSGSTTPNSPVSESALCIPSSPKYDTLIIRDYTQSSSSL

Regarding `Cc1c[nH]c(-c2noc(C3CCC4C=Cc5ccccc5C(=O)N4C3)n2)c1` (racemic) [Example 7-7, (±) cis-(Z)-3-[3-(4-methyl-1H-pyrrol-2-yl)-1,2,4-oxadiazol-5-yl]-1,3,4,12a-tetrahydropyrido[1,2-b][2]benzazepin-6(2H)-one], the EC50 under setting [1] is less than 1000 nM and the EC50 under setting [2] turned out to be 31 nM.
For `N#Cc1ccc2c(c1)CCC1CCC(c3nc(-c4cc(Cl)c[nH]4)no3)CN1C2=O` (racemic) [Example 18-1, (±) cis-9-cyano-3-[3-(4-chloro1H-pyrrol-2-yl)-1,2,4-oxadiazol-5-yl]-1,3,4,11,12,12a-hexahydropyrido[1,2-b][2]benzazepin-6(2H)-one] the same measures were less than 1000 nM and 50 nM.
Take `O=C1c2ccc(F)cc2C(F)(F)C[C@@H]2CC[C@H](c3nc(-c4ccc(F)cn4)no3)CN12` (racemic) [Example 20-3, (±) cis-9,11,11-trifluoro-3-[3-(5-fluoropuridin-2-yl)-1,2-4-oxadiazol-5-yl]-1,3,4,11,12,12a-hexahydropyrido[1,2-b][2]benzazepin-6(2H)-one]: the EC50 under setting [1] is less than 1000 nM.
Same read-out and setting: under `O=C1c2cnc(F)cc2CC[C@@H]2CC[C@H](c3noc(-c4ccc(F)cn4)n3)CN12` (single isomer, unassigned) [Example 24-6] stands less than 1000 nM.
Turning to `Cc1c[nH]c(-c2noc([C@H]3CC[C@H]4CCc5ccccc5C(=O)N4C3)n2)c1` [Example 1-5, cis-(3S,12aS)-3-(3-(4-Methyl-1H-pyrrol-2-yl)-1,2,4-oxadiazol-5-yl)-1,3,4,11,12,12a-hexahydrobenzo[e]pyrido[1,2-a]azepin-6(2H)-one], the EC50 runs as follows: under setting [1], less than 1000 nM; under setting [2], 16 nM.
For `O=C1c2ccc(F)cc2CC[C@@H]2CC[C@H](c3nc(-c4cc(Cl)c[nH]4)no3)CN12` [Example 3-1, (3S,12aS)-9-Fluoro-3-[3-(4-chloro1H-pyrrol-2-yl)-1,2,4-oxadiazol-5-yl]-1,3,4,11,12,12a-hexahydropyrido[1,2-b][2]benzazepin-6(2H)-one] the same measures were less than 1000 nM and 8 nM.
With `O=C1c2ccccc2OC[C@@H]2CC[C@H](c3nc(-c4cc(Cl)c[nH]4)no3)CN12` [Example 11-8, (6aS,9S)-9-[3-(4-chloro-1H-pyrrol-2-yl)-1,2,4-oxadiazol-5-yl]-6,6a,7,8,9,10-hexahydro-12H-pyrido[2,1-c][1,4]benzoxazepin-12-one], the EC50 reads like this: under setting [1], less than 1000 nM; under setting [2], 71 nM.
In the case of `COc1ccc2c(n1)CC[C@@H]1CC[C@H](c3nc(-c4cc(Cl)c[nH]4)no3)CN1C2=O` [Example 13-2, (8S,10aS)-8-[3-(4-chloro-1H-pyrrol-2-yl)-1,2,4-oxadiazol-5-yl]-2-methoxy-8,9,10,10a,11,12-hexahydrodipyrido[1,2-a:2′,3′-e]azepin-5(7H)-one], the EC50 under setting [1] is less than 1000 nM.
